Laboratory results from article PMC5175178, “Development of an in-vivo active reversible butyrylcholinesterase inhibitor” (Scientific Reports, 2016).
Where two headings read alike, the source gives them in different places.

Tests used:
[1] = biological target: T1, huBChE (Homo sapiens, UniProt P06276); assay type: biochemical; settings: for IC50: head prints no unit, nM, read-out: IC50 ±SEM huBChE
T1 construct: made in house
Description: The inhibitory potencies of the compounds against the ChEs were determined using the method of Ellman[32].
The enzyme solutions were prepared by dilution of the concentrated stocks in phosphate-buffered solution (0.1 M, pH 8.0). […] The reactions were started by addition of the substrate, at room temperature. The final content of the organic solvent (DMSO) was always 1%. […] To determine the blank value (b), phosphate-buffered solution replaced the enzyme solution. The initial velocity (v0) was calculated from the slope of the linear trend obtained, with each measurement carried out in triplicate. […] The compounds were added to each well at a final concentration of 10 μM. […] The initial velocities in the presence of the test compounds (vi) were calculated. The inhibitory potencies are expressed as the residual activities (RA = (vi – b) / (vo – b)). […] The IC50 values were obtained by plotting the residual enzyme activities against the applied inhibitor concentrations, with the experimental data fitted to Equation (1):
where X is the logarithm of the inhibitor concentration, and Y is the residual activity. For the fitting procedure, the Gnuplot software and an in-house python script were used.

[2] = biological target: T2, mAChE (Mus musculus, UniProt P21836); experiment: In-vitro inhibitory activity against mAChE, method of Ellman; assay type: biochemical, murine
T2 construct: donated by Florian Nachon (IBS, Grenoble)
T2 sequence (P21836 32-614): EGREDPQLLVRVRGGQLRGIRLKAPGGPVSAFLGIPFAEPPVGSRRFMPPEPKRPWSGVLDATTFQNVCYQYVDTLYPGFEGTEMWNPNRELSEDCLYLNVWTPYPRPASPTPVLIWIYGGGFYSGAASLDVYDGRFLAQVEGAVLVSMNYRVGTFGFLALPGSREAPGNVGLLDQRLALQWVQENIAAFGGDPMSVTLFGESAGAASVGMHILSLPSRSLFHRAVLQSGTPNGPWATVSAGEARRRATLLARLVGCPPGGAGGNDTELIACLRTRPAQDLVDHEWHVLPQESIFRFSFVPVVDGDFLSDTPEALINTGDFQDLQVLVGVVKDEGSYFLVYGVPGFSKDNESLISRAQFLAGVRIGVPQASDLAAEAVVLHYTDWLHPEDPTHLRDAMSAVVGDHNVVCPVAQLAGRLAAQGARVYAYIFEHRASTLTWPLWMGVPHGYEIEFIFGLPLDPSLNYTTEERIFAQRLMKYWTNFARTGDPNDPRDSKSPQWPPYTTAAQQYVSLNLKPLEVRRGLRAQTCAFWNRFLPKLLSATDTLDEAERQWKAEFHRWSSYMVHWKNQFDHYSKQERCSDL

[3] = residual activity at 10 μM, Table 1
[4] = residual activity at 10 μM, %RA > 75% was considered as no inhibition, Table 1
[5] = residual activity at 10 µM, %RA >75% was considered no inhibition, Supplementary Table 1

T1 sequence (P06276 29-602): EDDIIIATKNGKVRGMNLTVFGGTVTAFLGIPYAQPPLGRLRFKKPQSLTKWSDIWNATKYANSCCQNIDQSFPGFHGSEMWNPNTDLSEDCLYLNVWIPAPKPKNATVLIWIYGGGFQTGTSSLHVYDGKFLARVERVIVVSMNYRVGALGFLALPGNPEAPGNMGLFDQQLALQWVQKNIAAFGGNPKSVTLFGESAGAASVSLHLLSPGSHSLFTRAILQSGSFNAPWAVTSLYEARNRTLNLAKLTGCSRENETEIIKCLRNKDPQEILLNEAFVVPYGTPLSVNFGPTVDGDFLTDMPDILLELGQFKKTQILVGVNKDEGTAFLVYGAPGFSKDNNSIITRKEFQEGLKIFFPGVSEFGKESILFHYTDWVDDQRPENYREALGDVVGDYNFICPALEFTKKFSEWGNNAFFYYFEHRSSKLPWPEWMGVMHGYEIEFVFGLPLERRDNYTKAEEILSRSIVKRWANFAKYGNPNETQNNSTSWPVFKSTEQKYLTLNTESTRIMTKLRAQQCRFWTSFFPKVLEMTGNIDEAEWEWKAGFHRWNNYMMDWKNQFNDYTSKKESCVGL

SMILES	%RA at 10 µM ±SEM mAChE [2, 5]	IC50 ([1]; Supplementary Table 1)	other results
COCCN(CC1CCCN(C2Cc3ccccc3C2)C1)S(=O)(=O)c1ccc2ccccc2c1 (racemic) [compound 3, (±)-N-((1-(2,3-dihydro-1H-inden-2-yl)piperidin-3-yl)methyl)-N-(2-methoxyethyl)naphthalene-2-sulfonamide]	72% ±1%		%RA at 10μM ± SEM huBChE [1, 3]: 1.47% ± 1.54%; %RA at 10 µM ±SEM mAChE [2, 4]: 72% ± 1%
COCCN(CC1CCCN(C2Cc3ccccc3C2)C1)S(=O)(=O)c1cccc(N)c1 (racemic) [compound 4, (±)-3-amino-N-((1-(2,3-dihydro-1H-inden-2-yl)piperidin-3-yl)methyl)-N-(2-methoxyethyl)benzenesulfonamide]	90% ±0.003%		%RA at 10μM ± SEM huBChE [1, 3]: 2.34% ± 0.13%; %RA at 10 µM ±SEM mAChE [2, 4]: 90% ± 0.003%
COCCCN(CC1CCCN(Cc2ccccc2)C1)S(=O)(=O)c1ccc2ccccc2c1 (racemic) [compound 5, (±)-N-((1-benzylpiperidin-3-yl)methyl)-N-(3-methoxypropyl)naphthalene-2-sulfonamide]	95% ±5%		%RA at 10μM ± SEM huBChE [1, 3]: 0.71% ± 0.66%; %RA at 10 µM ±SEM mAChE [2, 4]: 95% ± 5%
O=S(=O)(NCC1CCCN(Cc2ccccc2)C1)c1ccc2ccccc2c1 (racemic) [compound 7, (±)-N-((1-benzylpiperidin-3-yl)methyl)naphthalene-2-sulfonamide]	78% ±3%		
CN(CC1CCCN(Cc2ccccc2)C1)S(=O)(=O)c1ccc2ccccc2c1 (racemic) [compound 8, (±)-N-((1-benzylpiperidin-3-yl)methyl)-N-methylnaphthalene-2-sulfonamide]	82% ±1%		
COCCN(CC1CCCN(C2Cc3ccccc3C2)C1)S(=O)(=O)c1cccc([N+](=O)[O-])c1 (racemic) [compound 13, (±)-N-((1-(2,3-dihydro-1H-inden-2-yl)piperidin-3-yl)methyl)-N-(2-methoxyethyl)-3-nitrobenzenesulfonamide]		3610 ± 528 nM	
COCCN(CC1CCCN(C2Cc3ccccc3C2)C1)S(=O)(=O)c1ccccc1 (racemic) [compound 16, (±)-N-((1-(2,3-dihydro-1H-inden-2-yl)piperidin-3-yl)methyl)-N-(2-methoxyethyl)benzenesulfonamide]	97% ±4%	343 ± 5 nM	
COCCN(CC1CCCN(C2Cc3ccccc3C2)C1)S(=O)(=O)c1ccc(C)cc1 (racemic) [compound 17, (±)-N-((1-(2,3-dihydro-1H-inden-2-yl)piperidin-3-yl)methyl)-N-(2-methoxyethyl)-4-methylbenzenesulfonamide]	86% ±3%	279 ± 8 nM	
COCCN(CC1CCCN(C2Cc3ccccc3C2)C1)S(=O)(=O)c1ccc(F)cc1 (racemic) [compound 18, (±)-N-((1-(2,3-dihydro-1H-inden-2-yl)piperidin-3-yl)methyl)-4-fluoro-N-(2-methoxyethyl)benzenesulfonamide]	88% ±2%	887 ± 80 nM	
COCCN(CC1CCCN(C2Cc3ccccc3C2)C1)S(=O)(=O)c1ccc(OC)cc1 (racemic) [compound 19, (±)-N-((1-(2,3-dihydro-1H-inden-2-yl)piperidin-3-yl)methyl)-4-methoxy-N-(2-methoxyethyl)benzenesulfonamide]	87% ±7%	482 ± 66 nM	
COCCN(CC1CCCN(C2Cc3ccccc3C2)C1)S(=O)(=O)c1ccc([N+](=O)[O-])cc1 (racemic) [compound 20, (±)-N-((1-(2,3-dihydro-1H-inden-2-yl)piperidin-3-yl)methyl)-N-(2-methoxyethyl)-4-nitrobenzenesulfonamide]	91% ±1%	3470 ± 52 nM	
COCCN(CC1CCCN(C2Cc3ccccc3C2)C1)S(=O)(=O)c1ccccc1C(=O)OC (racemic) [compound 21, (±)-methyl 2-(N-((1-(2,3-dihydro-1H-inden-2-yl)piperidin-3-yl)methyl)-N-(2-methoxyethyl)sulfamoyl)benzoate]	94% ±0.001%	359 ± 18 nM	
COCCN(CC1CCCN(C2Cc3ccccc3C2)C1)S(=O)(=O)c1ccc(N)cc1 (racemic) [compound 22, (±)-4-amino-N-((1-(2,3-dihydro-1H-inden-2-yl)piperidin-3-yl)methyl)-N-(2-methoxyethyl)benzenesulfonamide]	91% ±1%	314 ± 36 nM	
COCCN(CC1CCCN(C2Cc3ccccc3C2)C1)S(=O)(=O)c1ccc(NC(C)=O)cc1 (racemic) [compound 23, (±)-N-(4-(N-((1-(2,3-dihydro-1H-inden-2-yl)piperidin-3-yl)methyl)-N-(2-methoxyethyl)sulfamoyl)phenyl)acetamide]	85% ±5%	321 ± 35 nM	
COCCN(CC1CCCN(C2Cc3ccccc3C2)C1)S(=O)(=O)c1cccc(NC(C)=O)c1 (racemic) [compound 24, (±)-N-(3-(N-((1-(2,3-dihydro-1H-inden-2-yl)piperidin-3-yl)methyl)-N-(2-methoxyethyl)sulfamoyl)phenyl)acetamide]	95% ±4%	8210 ± 601 nM	
CNC(=O)c1ccccc1S(=O)(=O)N(CCOC)CC1CCCN(C2Cc3ccccc3C2)C1 (racemic) [compound 25, (±)-2-(N-((1-(2,3-dihydro-1H-inden-2-yl)piperidin-3-yl)methyl)-N-(2-methoxyethyl)sulfamoyl)-N-methylbenzamide]	101% ±4%	3220 ± 492 nM	
COCCN(CC1CCCN(Cc2ccc(F)cc2)C1)S(=O)(=O)c1ccc2ccccc2c1 (racemic) [compound 37, (±)-N-((1-(4-fluorobenzyl)piperidin-3-yl)methyl)-N-(2-methoxyethyl)naphthalene-2-sulfonamide]	89% ±3%	23.1 ± 6 nM	
COCCN(CC1CCCN(Cc2cccc(F)c2)C1)S(=O)(=O)c1ccc2ccccc2c1 (racemic) [compound 38, (±)-N-((1-(3-fluorobenzyl)piperidin-3-yl)methyl)-N-(2-methoxyethyl)naphthalene-2-sulfonamide]	99% ±0.001%	49.1 ± 1.2 nM	
COCCN(CC1CCCN(Cc2ccc(C#N)cc2)C1)S(=O)(=O)c1ccc2ccccc2c1 (racemic) [compound 39, (±)-N-((1-(4-cyanobenzyl)piperidin-3-yl)methyl)-N-(2-methoxyethyl)naphthalene-2-sulfonamide]	97% ±2%	1460 ± 115 nM	
COCCN(CC1CCCN(Cc2cccc(C#N)c2)C1)S(=O)(=O)c1ccc2ccccc2c1 (racemic) [compound 40, (±)-N-((1-(3-cyanobenzyl)piperidin-3-yl)methyl)-N-(2-methoxyethyl)naphthalene-2-sulfonamide]	93% ±3%	338 ± 8 nM	
COCCN(CC1CCCN(Cc2ccc(N(C)C)cc2)C1)S(=O)(=O)c1ccc2ccccc2c1 (racemic) [compound 41, (±)-N-((1-(4-(dimethylamino)benzyl)piperidin-3-yl)methyl)-N-(2-methoxyethyl)naphthalene-2-sulfonamide]	105% ±6%	311 ± 22 nM	
O=S(=O)(NCC1CCCN(c2nc3ccccc3s2)C1)c1ccc2ccccc2c1 (racemic) [compound 71, (±)-N-((1-(benzo[d]thiazol-2-yl)piperidin-3-yl)methyl)naphthalene-2-sulfonamide]			%RA at 10μM ± SEM huBChE ([1]; residual activity at 10 µM, Supplementary Table 1): 30% ±2%
CN(CC1CCCN(Cc2ccc(F)cc2)C1)S(=O)(=O)c1ccc2ccccc2c1 (racemic) [compound 72, (±)-N-((1-(4-fluorobenzyl)piperidin-3-yl)methyl)-N-methylnaphthalene-2-sulfonamide]	96% ±2%		
COCCN(CC1CCCN(C2Cc3ccccc3C2)C1)C(=O)c1ccc2ccccc2c1 (stereo not shown) [compound 1, reference compound]			IC50 ([2]; Table 1, read-out: IC50 (nM) ± SEM mAChE): 102000 ± 2500 nM
COCCN(CC1CCN(Cc2ccccc2)CC1)S(=O)(=O)c1ccc2ccccc2c1 [compound 75, N-((1-benzylpiperidin-4-yl)methyl)-N-(2-methoxyethyl)naphthalene-2-sulfonamide]	98% ±1%		
COCCN(CC1CCN(C2Cc3ccccc3C2)CC1)S(=O)(=O)c1ccc2ccccc2c1 [compound 84, N-((1-(2,3-dihydro-1H-inden-2-yl)piperidin-4-yl)methyl)-N-(2-methoxyethyl)naphthalene-2-sulfonamide]	87% ±3%		
COCCCN(CC1CCN(C2Cc3ccccc3C2)CC1)S(=O)(=O)c1ccc2ccccc2c1 [compound 85, N-((1-(2,3-dihydro-1H-inden-2-yl)piperidin-4-yl)methyl)-N-(3-methoxypropyl)naphthalene-2-sulfonamide]	86% ±0.004%		
O=S(=O)(NCC1CCN(Cc2ccccc2)CC1)c1ccc2ccccc2c1 [compound 86, N-((1-benzylpiperidin-4-yl)methyl)naphthalene-2-sulfonamide]			IC50 [2]: 1780 ± 85 nM
